{
  "source": "patent US20190388365A1",
  "about": "“C[…] NEURO-DEGENERATIVE DISEASES AND SIDE-EFFECTS ASSOCIATED WITH COGNITION EFFECTING PHARMACEUTICALS” (priority 2015, published 2019)",
  "origin": "cited, not measured here",
  "system": "patients receiving morphine",
  "conditions": "limited clinical trials",
  "data": [
    {"molecule": "NC(=O)C[S+]([O-])C(c1ccccc1)c1ccccc1", "note": "(racemic) [Modafinil, benzhydrylsulfinylacetamide]", "values": [
      {"measurement": "effect on sleepiness and confusion associated with morphine delivery", "result": "reverses the sleepiness and even confusion associated with morphine delivery"}
    ]}
  ]
}
